{"source": "ChEMBL document CHEMBL3639048", "about": "“2,5-methano- and 2,5-ethano-tetrahydrobenzazepine derivatives and use thereof to block reuptake of norepinephrine, dopamine, and serotonin” (2015)", "format_in_all_cases": "cell membranes", "key": {"[1]": {"target": "Sodium-dependent dopamine transporter (Homo sapiens, UniProt Q01959)", "sequence (Q01959 whole entry)": "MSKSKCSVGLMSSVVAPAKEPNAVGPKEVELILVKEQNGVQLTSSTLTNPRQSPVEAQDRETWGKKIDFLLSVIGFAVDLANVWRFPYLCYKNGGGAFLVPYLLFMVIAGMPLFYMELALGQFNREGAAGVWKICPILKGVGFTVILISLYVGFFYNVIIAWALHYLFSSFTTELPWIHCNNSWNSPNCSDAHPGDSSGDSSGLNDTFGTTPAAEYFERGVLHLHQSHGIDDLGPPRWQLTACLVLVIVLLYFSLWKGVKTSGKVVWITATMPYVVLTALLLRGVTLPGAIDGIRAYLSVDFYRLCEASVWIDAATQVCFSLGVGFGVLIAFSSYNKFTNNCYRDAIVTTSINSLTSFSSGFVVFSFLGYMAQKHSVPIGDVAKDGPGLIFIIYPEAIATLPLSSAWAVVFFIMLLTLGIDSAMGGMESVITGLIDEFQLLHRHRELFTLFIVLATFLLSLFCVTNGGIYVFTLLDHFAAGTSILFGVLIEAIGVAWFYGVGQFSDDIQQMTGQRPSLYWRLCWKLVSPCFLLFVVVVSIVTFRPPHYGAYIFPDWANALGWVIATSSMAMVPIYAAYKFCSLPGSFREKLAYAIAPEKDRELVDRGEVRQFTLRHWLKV", "assay": "Radioligand Binding Assay: Compounds were dissolved in 100% DMSO at a concentration 100 times the desired highest assay concentration, serially diluted 1:3 in 100% DMSO, and 0.4 ul/well of each solution was dispensed to a Nunc polypropylene, round bottom, 384-well plate. […] 20 ul/well of a 2x membrane preparation (12.5 ug/ml in 30 mM sodium phosphate buffer, pH 7.9 at 4 C.) and 20 ul/well of a 2x radioligand solution (250 pM [125I]RTI-55 in 30 mM sodium phosphate buffer, pH 7.9 at 4 C.) were added to the well and the reaction incubated for 1 hour at room temperature. The contents of the assay plate were then transferred to a Millipore MultiscreenHTS GF/B filter plate which was pretreated with 0.5% PEI for at least one hour. The plate was vacuum-filtered and washed with 7 washes of 100 ul/well 50 mM Tris-Cl, pH 7.5, 120 mM NaCl, 5 mM KCl chilled to 4 C."}, "[2]": {"target": "Sodium-dependent noradrenaline transporter (Homo sapiens, UniProt P23975)", "sequence (P23975 whole entry)": "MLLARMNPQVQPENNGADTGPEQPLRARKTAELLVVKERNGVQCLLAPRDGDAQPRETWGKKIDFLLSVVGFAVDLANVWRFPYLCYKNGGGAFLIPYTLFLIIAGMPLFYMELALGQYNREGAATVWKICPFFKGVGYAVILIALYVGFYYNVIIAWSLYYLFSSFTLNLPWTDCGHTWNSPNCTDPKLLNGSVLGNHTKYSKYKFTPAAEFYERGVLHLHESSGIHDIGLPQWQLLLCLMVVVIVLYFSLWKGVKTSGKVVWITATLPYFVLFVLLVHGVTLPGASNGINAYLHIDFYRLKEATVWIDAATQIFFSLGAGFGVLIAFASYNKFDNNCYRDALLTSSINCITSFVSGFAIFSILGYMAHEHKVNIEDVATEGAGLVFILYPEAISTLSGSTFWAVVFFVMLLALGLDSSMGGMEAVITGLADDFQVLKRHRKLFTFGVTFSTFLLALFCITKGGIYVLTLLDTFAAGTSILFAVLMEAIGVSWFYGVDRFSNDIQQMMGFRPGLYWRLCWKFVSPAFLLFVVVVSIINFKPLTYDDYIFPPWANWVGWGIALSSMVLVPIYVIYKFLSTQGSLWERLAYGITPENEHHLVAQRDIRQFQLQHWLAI", "assay": "Radioligand Binding Assay: Compounds were dissolved in 100% DMSO at a concentration 100 times the desired highest assay concentration, serially diluted 1:3 in 100% DMSO, and 1.0 ul/well of each solution was dispensed to a Nunc polypropylene, round bottom, 384-well plate. […] 50 ul/well of a 2x membrane preparation (0.4 mg/ml in 50 mM Tris-Cl, pH 7.5, 120 mM NaCl, 5 mM KCl) and 50 ul/well of a 2x radioligand solution (4 nM [3H]nisoxetine in 50 mM Tris-Cl, pH 7.5, 120 mM NaCl, 5 mM KCl) were added to the well and the reaction incubated for 1 hour at room temperature. The contents of the assay plate were then transferred to a Millipore MultiscreenHTS GF/B filter plate which was pretreated with 0.5% PEI for at least one hour. The plate was vacuum filtered and washed with 7 washes of 100 ul/well 50 mM Tris-Cl, pH 7.5, 120 mM NaCl, 5 mM KCl chilled to 4 C."}, "[3]": {"target": "Sodium-dependent serotonin transporter (Homo sapiens, UniProt P31645)", "sequence (P31645 whole entry)": "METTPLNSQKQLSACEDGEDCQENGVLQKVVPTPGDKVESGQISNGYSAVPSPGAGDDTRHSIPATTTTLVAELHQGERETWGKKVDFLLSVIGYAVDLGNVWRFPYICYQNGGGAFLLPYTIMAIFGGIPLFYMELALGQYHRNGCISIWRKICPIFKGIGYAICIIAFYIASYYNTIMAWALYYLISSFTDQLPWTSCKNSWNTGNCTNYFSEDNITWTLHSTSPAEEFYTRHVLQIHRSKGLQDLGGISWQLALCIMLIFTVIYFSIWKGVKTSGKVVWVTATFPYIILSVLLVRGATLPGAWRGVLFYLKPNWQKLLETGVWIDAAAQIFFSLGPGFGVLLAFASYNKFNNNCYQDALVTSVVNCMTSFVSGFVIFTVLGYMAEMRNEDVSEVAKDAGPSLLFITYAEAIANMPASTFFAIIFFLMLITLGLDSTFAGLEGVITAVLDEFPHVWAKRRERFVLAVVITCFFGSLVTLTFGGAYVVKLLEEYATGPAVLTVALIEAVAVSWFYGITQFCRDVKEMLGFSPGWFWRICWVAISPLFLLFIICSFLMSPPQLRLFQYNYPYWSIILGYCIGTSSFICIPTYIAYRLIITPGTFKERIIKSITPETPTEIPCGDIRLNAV", "assay": "Radioligand Binding Assay: Compounds were dissolved in 100% DMSO at a concentration 100 times the desired highest assay concentration, serially diluted 1:3 in 100% DMSO, and 0.4 ul/well of each solution was dispensed to a Nunc polypropylene, round bottom, 384-well plate. […] 20 ul/well of a 2x membrane preparation (15 ug/ml in 50 mM Tris-Cl, pH 7.5, 120 mM NaCl, 5 mM KCl) and 20 ul/well of a 2x radioligand solution (520 pM [125I]RTI-55 in 50 mM Tris-Cl, pH 7.5, 120 mM NaCl, 5 mM KCl) were added to each well and the reaction incubated for 1 hour at room temperature. The contents of the assay plate were then transferred to a Millipore MultiscreenHTS GF/B filter plate which was pretreated with 0.5% PEI for at least one hour. The plate was vacuum filtered and washed with 7 washes of 100 uA/well 50 mM Tris-Cl, pH 7.5, 120 mM NaCl, 5 mM KCl chilled to 4 C."}}}
{"smiles": "O=c1[nH]c2ccc(-c3ccc4c(c3)CN3CCC4(c4ccc(Cl)c(Cl)c4)CC3)cc2o1", "values": [{"measurement": "IC50", "setting": "[1]", "result": 25.5, "unit": "nM"}, {"measurement": "IC50", "setting": "[2]", "result": 451, "unit": "nM"}, {"measurement": "IC50", "setting": "[3]", "result": 9.3, "unit": "nM"}]}
